From the CheMixHub ionic liquid set

Experiment: xn = mol fraction of the nth substance listed
Conditions: 101 kPa

CCCCCCCCCCCCCCCC[n+]1ccccc1.O=C([O-])c1ccccc1O + CC(C)C[C@H](N)C(=O)O + O
electrical conductivity [S/m]
Conditions | 293.15 K | 298.15 K | 303.15 K | 308.15 K | 313.15 K
x2 = 0.0009002, x1 = 3.6e-07 | 0.000905 | 0.00101 | 0.00113 | 0.00125 | 0.00138
x2 = 0.0009002, x1 = 7.2e-07 | 0.00104 | 0.00117 | 0.0013 | 0.00144 | 0.00159
x2 = 0.0009002, x1 = 9.1e-07 | 0.00119 | 0.00133 | 0.00148 | 0.00164 | 0.00181
x2 = 0.0009002, x1 = 1.27e-06 | 0.00132 | 0.00148 | 0.00165 | 0.00183 | 0.00201
x2 = 0.0009002, x1 = 1.63e-06 | 0.00147 | 0.00166 | 0.00184 | 0.00204 | 0.00225
x2 = 0.0009002, x1 = 1.99e-06 | 0.00163 | 0.00185 | 0.00207 | 0.00229 | 0.00253
x2 = 0.0009002, x1 = 2.54e-06 | 0.00179 | 0.00203 | 0.00229 | 0.00255 | 0.00282
x2 = 0.0009002, x1 = 2.9e-06 | – | – | – | 0.00275 | 0.00309
x2 = 0.0009002, x1 = 3.08e-06 | 0.00192 | 0.00218 | 0.00246 | – | –
x2 = 0.0009002, x1 = 3.44e-06 | 0.00203 | 0.00231 | 0.00263 | 0.00297 | 0.00331
x2 = 0.0009002, x1 = 3.81e-06 | – | 0.00243 | 0.00276 | 0.00311 | 0.00348
x2 = 0.0009002, x1 = 3.99e-06 | 0.00214 | – | – | – | –
x2 = 0.0009002, x1 = 4.35e-06 | 0.00224 | 0.00256 | 0.00289 | 0.00327 | 0.00366
x2 = 0.0009002, x1 = 4.71e-06 | 0.00235 | 0.00268 | 0.00303 | 0.00342 | 0.00383
x2 = 0.0009002, x1 = 5.07e-06 | – | – | 0.00316 | 0.00356 | 0.00399
x2 = 0.0009002, x1 = 5.26e-06 | 0.00246 | 0.0028 | – | – | –
x2 = 0.0009002, x1 = 5.62e-06 | 0.00255 | 0.0029 | 0.00328 | 0.00369 | 0.00415
x2 = 0.0009002, x1 = 5.98e-06 | 0.00266 | 0.00302 | 0.00341 | 0.00383 | 0.0043
x2 = 0.001799, x1 = 3.6e-07 | 0.00153 | 0.00172 | 0.00192 | 0.00213 | 0.00235
x2 = 0.001799, x1 = 5.5e-07 | 0.00167 | 0.00187 | 0.00208 | 0.00231 | 0.00256
x2 = 0.001799, x1 = 9.1e-07 | 0.00179 | 0.00201 | 0.00224 | 0.00249 | 0.00275
x2 = 0.001799, x1 = 1.09e-06 | 0.00192 | 0.00216 | 0.00241 | 0.00268 | 0.00296
x2 = 0.001799, x1 = 1.46e-06 | 0.00204 | 0.00229 | 0.00256 | 0.00283 | 0.00313
x2 = 0.001799, x1 = 1.64e-06 | 0.00212 | 0.00239 | 0.00267 | 0.00297 | 0.00329
x2 = 0.001799, x1 = 1.82e-06 | 0.00221 | 0.00248 | 0.00278 | 0.00309 | 0.00341
x2 = 0.001799, x1 = 2e-06 | 0.00227 | 0.00257 | 0.00288 | 0.00321 | 0.00356
x2 = 0.001799, x1 = 2.19e-06 | 0.00235 | – | 0.003 | 0.00334 | 0.0037
x2 = 0.001799, x1 = 2.37e-06 | – | – | – | – | 0.00384
x2 = 0.001799, x1 = 2.55e-06 | 0.00242 | 0.00275 | – | 0.00345 | –
x2 = 0.001799, x1 = 2.73e-06 | 0.00249 | 0.00284 | 0.00322 | 0.00361 | 0.00402
x2 = 0.001799, x1 = 3.1e-06 | 0.00256 | 0.00291 | 0.0033 | 0.0037 | 0.00413
x2 = 0.001799, x1 = 3.28e-06 | 0.00262 | 0.00298 | 0.00338 | 0.00379 | 0.00423
x2 = 0.001799, x1 = 3.46e-06 | – | – | – | – | 0.00434
x2 = 0.001799, x1 = 3.64e-06 | 0.00269 | 0.00306 | 0.00347 | 0.00389 | –
x2 = 0.001799, x1 = 3.83e-06 | 0.00275 | 0.00312 | 0.00354 | 0.00397 | 0.00443

F[P-](F)(F)(F)(F)F.[Li+] + CC[n+]1ccn(C)c1.O=S(=O)([O-])C(F)(F)F
electrical conductivity [S/m]
Conditions | x1 = 0.007746 | x1 = 0.01537 | x2 = 0.9673 | x2 = 0.9746
288.15 K | 0.614 | 0.559 | – | 0.532
298.15 K | 0.898 | 0.816 | 0.786 | 0.785
333.15 K | 2.3 | 2.08 | 2.08 | 2.02
